# Results published in US7192617B2, “Whitening agent, skin preparation for external use and cosmetic” (priority 2002, dated 2007).
# Test: Test for measuring DPPH radical scavenging activity
# Conditions: 30 minutes of reaction at 30° C., absorbance at 517 nm; in terms of the evaporation residue
# Procedure: 800 μl of a 500 μM DPPH solution was added to the test tube, stirred, and reacted at 30° C. Exactly after 30 minutes of reaction, the absorbance of the sample at 517 nm was measured, using distilled water as a standard. From the measured absorbances, the DPPH radical scavenging ratio was calculated, and the 50% radical scavenging activity (IC50) was obtained. The same procedure was performed with α-tocopherol, which is a known antioxidative component, for measuring the DPPH radical scavenging activity. […] From the measured values, the DPPH radical scavenging ratios were calculated.
compound,measurement,value
Cc1c(C)c2c(c(C)c1O)CC[C@@](C)(CCC[C@H](C)CCC[C@H](C)CCCC(C)C)O2 [α-tocopherol],50% DPPH radical scavenging activity (IC50),0.13 mg/g
